One data set has as its system Calf Thymus DNA. Briefly: Viscosity studies of DNA exposed to peroxynitrite (depurination and strand breakage). It counts as biochemical. An excerpt:
As the degree of DNA damage increases, the likelihood of two single stranded breaks occurring within a few bases on the opposite strands of double-stranded DNA also increases. Double-stranded DNA breaks result in a decrease in the length of the DNA molecule, detectable as a decreased viscosity of linear double-stranded DNA. This method was also used to assay for depurination and DNA strand breakage. Stock solutions of Sigma Calf Thymus DNA were made by dissolving DNA in 0.1 M Na2HPO4, pH 8, 0.1 M sodium cacodylate, pH 5, 0.1 M Tris, pH 8, and 0.1 M borate, pH 8. The final volume for all viscosity experiments was 40 ml and the DNA concentration was 420 μg/ml. […] The data was recorded as the relative viscosity and specific viscosity of the solution.

In data set [1] the test system is supercoiled pUC19 plasmid DNA. Briefly: Conversion of supercoiled plasmid DNA to open circles (single-stranded DNA breaks) by peroxynitrite. Format: biochemical, E coli. The protocol:
E coli strain JM109 containing plasmid DNA (pUC19) was grown in 2 ml of M9 media to which 24 μl of 2.5 mg/ml ampicillin was added. Following incubation for approximately 8 hours, the culture was transferred to 50 ml of M9 media containing ampicillin. The following day, 25 ml of the overnight culture was used to inoculate 500 ml of M9 media containing ampicillin. When the optical density at 600 nm of the bacterial culture reached between 0.6 and 0.8 O.D., 50 mg of chloramphenicol, dissolved in 1 ml of absolute ethanol, was added to the culture and the culture was incubated overnight. The next morning, cells were harvested by centrifugation. Plasmid DNA was isolated using a Promega Wizard MaxiPrep Kit. Cells were resuspended in resuspension solution, and lysis buffer was added. The buffer was neutralized after 20 min, the solution was centrifuged and the supernatant collected. To the supernatant was added 0.5 volumes of isopropanol, which caused the DNA to precipitate. […] After removing the fine particles the DNA was ready for use. Its concentration was measured by absorbance at 260 nm (0.2 OD units=10 μg/ml). Plasmid DNA was analyzed by electrophoresis in TAE buffer using a 1% agarose gel. […] DNA was analyzed as described above. The effect of peroxynitrite concentration on the conversion of supercoils to open circles was determined at pH 5, 6, 7, 8, and 9. […] DNA was analyzed as described above. […]

The conditions of data set [2]: cited from earlier work.

Usually pKa stands for the pH at which an ionisable group is half protonated.

`O=NOO` [peroxynitrite]: the “activation energy of the depurination reaction (formation of single-stranded DNA nicks)” value with Calf Thymus DNA (Arrhenius analysis) worked out at 917 Joules/mole. Further, the “viscosity of DNA solution with time of exposure” value in the data set on Calf Thymus DNA (all pH values, 37° C., within the first two hours of exposure) was “Viscosity decreased”. Further, the “reduction in DNA supercoiling” value in data set [1] (minimum observed under the conditions of the study, constant peroxynitrite concentration) is listed as at least 45%. Besides, the “conversion of supercoiled plasmid DNA to open circles” value in data set [1] (pH 4 to 10, 30 minutes at room temperature) is reported as “effective at converting supercoiled plasmid DNA to open circles at all pHs”.
In the case of `O=NOO` [peroxynitrous acid], the pKa in data set [2] (acid form of peroxynitrite) was 6.8. Further, the half life in data set [2] (pH 7.4) is 1.9 s.

These data come from patent US6379900B1, “Compositions and methods of use of 8-nitroguanine” (Conceptual Mindworks, Inc., priority 2000, dated 2002).
